According to PMC6927504, “Screening of House Dust from Chinese Homes for Chemicals with Liver X Receptors Binding Activities and Characterization of Atherosclerotic Activity Using an in Vitro Macrophage Cell Line and ApoE^−/− Mice” (Environmental Health Perspectives, 2019):

Experiment: Body weight of ApoE−/− mice
Type: in vivo, mouse
Conditions: 10 and 40 mg/kg BW, 13 weeks
Source text: All experiments related to animals were approved by the institutional animal care and use committee of Peking University and followed the guidelines for animal experiments of the university as well as for experimental animals in China. The biological effect size of the animal experiments was based on the previous paper ([Negro Silva et al. 2017]). C57BL/6 (12 weeks old) and ApoE^−/− mice (12 weeks old) were obtained from the Beijing Vital River Laboratory Animal Technology Company. Mice used in the experiments were acclimated to the housing unit 2 weeks before they were used for experiments, and they were randomly assigned to control or TPHP treatment groups. Five animals were housed to a cage, and mice were acclimatized to the controlled environment (temperature: 22±2°C; relative humidity: 40–60%; artificial lighting: 12 h:12 h light/dark). Mice received diet and drinking water ad libitum. Body weight (BW) was measured every week during the dosing period. Forty-five C57BL/6 mice and 27 ApoE^−/− mice were used in this study. […] Considering that this study assessed the effects of short-term exposure to TPHP, whereas humans are exposed to TPHP over a lifelong period, the present study used exposure doses that were higher than that of human exposure from house dust. […]

Compound: O=P(Oc1ccccc1)(Oc1ccccc1)Oc1ccccc1 [TPHP, triphenyl phosphate]
- Body weight versus control: No significant differences
